Source: patent publication US12692274B2, “Tetrahydroisoquinoline derivatives for the treatment of red blood disorders and inflammatory diseases” (Sanofi, priority 2020, dated 2026)
Where “and” joins values, the source holds several entries; their conditions need not be identical. Identical values can stand only once.

Columns and labels:
[1] = tested on: NQO1 activation in BEAS-2B cells; experiment: BEAS-2B cellular MTT assay of NQO1 activation, 0.3% HSA; format: cell-based
Description: (§1) The growth rate of the BEAS-2B cells changed based on the lot of BEGM SingleQuots in the BEGM media. The cell growth rate was determined for each lot of SingleQuots. Ideally, cells were thawed into media with the new lot of SingleQuots and grown for two passages before testing; however, growing an active culture in the new lot of media for two to three passages before testing was also acceptable. Until the cell growth rate was determined, cells were seeded at different densities (cells/cm^2) in multiple tissue culture flasks in order to avoid the cells becoming more than 70% confluent. Cells should not go above 70% confluent as the cells differentiate when they become confluent. After the cells were grown in the new lot of media as described above, the number of cells per well needed to seed in the collagen plates was determined by seeding different numbers of cells per well and incubating for 48 hours. Cell confluency was checked after 48 hours and a cell number that results in just below to just above confluency was chosen for future plate seeding. Cell confluency in the assay plate was 95-100% confluent after 48 hours.
(§2) Cell media consists of BEBM basal media with the BEGM SingleQuots added. SingleQuots vials were thawed in the tissue culture hood, and GA-1000 (Gentamicin-Amphotericin) was not added.
(§3) If complete media was to be used immediately, BEBM basal media was warmed to room temperature in the hood, but not as high as 37° C. When the media was made for future use, SingleQuots were added to cold BEBM. One at a time, the SingleQuots components (except GA-1000) were added to the BEBM media. After removal of each component from the vial, the vial was rinsed with 0.5-1 mL of BEBM (depending on the volume the vial could hold) and added to the bottle of BEBM. Once all components were added, the label that comes with the SingleQuots kit was put on the bottle of media and the date was recorded. The bottle of media was mixed by gentle shaking. The media was not filtered. This media was stored at 4° C., with any leftover media disposed of one month after the date the SingleQuots were added.
(§4) BEAS-2B Cell Splitting Protocol:
(§5) First, Trypsin was warmed to 37° C. in the water bath. The media was then warmed to room temperature by letting it sit in the tissue culture hood, but not as high as 37° C. The media was aspirated from flask(s) and the flask(s) were washed with PBS. From 1 to 1.5 mL of warm trypsin were added to each flask and incubated at 37° C. until cells came off the flask on their own (~8-10 minutes), with no vigorous tapping on the flask to detach the cells.
(§6) Media was added to each flask to a total volume of 8-10 mL per flask and transferred to 15 mL conical tube(s). The cells were spun down at 120 g for 5 minutes, level 5 brake. The cells can be spun down between 100 and 150 g. Next the media was aspirated and the cell pellet was resuspended in fresh media by pipetting up and down and flicking the tube side to side. Any clumps of cells that remained were allowed to settle to the bottom of the tube before the top suspension was transferred into another tube, leaving about 1 mL of media in the original tube. The 1 mL of media and cell clumps were mixed with a single channel p1000 pipette, and any remaining clumps were removed before adding the cells in suspension to the other tube. The suspension was mixed with a pipette, an aliquot was removed, and the cells were counted. The amount of cells/cm^2 desired was calculated and the required volume of cells was added to tissue culture flasks. For example, use of SingleQuots with ~6000 cells/cm^2 was appropriate for a three day incubation and ~3000 cells/cm^2 for a five day incubation. Optimal cell density differed depending on lot of SingleQuots. The flasks were incubated at 37° C. in 5% CO2.
(§7) Day One: Seeding BEAS-2B Cells in Collagen Plates:
(§8) Plate(s) were either seeded with 0.3% or 0% HSA. While the protocol was similar for both conditions any differences are noted herein below. […]

[2] = tested on: NQO1 activation in BEAS-2B cells; experiment: BEAS-2B cellular MTT assay of NQO1 activation, 0% HSA; format: cell-based
Description: as §1, §2, §3, §4, §5, §6, §7, §8

[3] = serum free, read-out: BEAS EC50 (nM) serum free
[4] = BEAS+ W, read-out: BEAS+ W EC50
[5] = Homo sapiens, BEAS+ W, read-out: BEAS+ W EC50
[6] = Homo sapiens, Serum Free W, read-out: BEAS EC50 (nM) Serum Free W
[7] = Serum Free W, read-out: BEAS EC50 (nM) Serum Free W
[8] = Homo sapiens, BEAS+, read-out: BEAS+ EC50
[9] = Homo sapiens, serum free, read-out: BEAS EC50 (nM) serum free

Row | Structure (SMILES) | EC50 ([1]; BEAS+, read-out: BEAS+ EC50) | EC50 [2, 3] | EC50 [1, 4] [nM] | EC50 [1, 5] [nM] | EC50 [2, 6] [nM] | EC50 [2, 7] [nM] | EC50 [1, 8] [nM] | EC50 [2, 9] [nM]
1 | Cc1c2ccc3c1nnn3CCCCCCc1ccc(cc1)C(=O)N1CCc3ccc(cc3C1)[C@@H]2[C@@H](C)C(=O)O (racemic) [Compound 201] | 0.5 nM and 0.2 nM | 0.3 nM and 0.1 nM | – | – | – | – | – | –
2 | Cc1cc2ncc1[C@H](C(C)(C)C(=O)O)c1ccc3c(c1)CN(CC3)C(=O)c1ccc(cc1)CCCCCO2 [Compound 53] | – | – | 47.8 | 38.5 | 8.7 | 12.3 | – | –
3 | Cc1cc2ncc1[C@@H](C(C)(C)C(=O)O)c1ccc3c(c1)CN(CC3)C(=O)c1ccc(cc1)CCCCCO2 [Compound 54] | – | – | – | – | 0.2 | 0.1 | – | –
4 | C[C@@H](C(=O)O)[C@H]1c2ccc(nc2)OCCCCCc2ccc(cc2)C(=O)N2CCc3ccc1cc3C2 [Compound 57] | – | – | 0.6 | – | – | 0.3 | – | –
5 | Cc1cc2cnc1OCCCCCc1ccc(cc1)C(=O)N1CCc3ccc(cc3C1)[C@@H]2[C@H](C)C(=O)O [Compound 71] | – | – | 13.2 | 10.5 | 3.4 | 3.3 | – | –
6 | Cc1cc2cnc1OCCCCCc1ccc(cc1)C(=O)N1CCc3ccc(cc3C1)[C@@H]2[C@@H](C)C(=O)O [Compound 72] | – | – | 7720 | 9870 | > 1000 | 1930 | – | –
7 | COc1cc2ncc1[C@@H](CC(=O)O)c1ccc3c(c1)CN(CC3)C(=O)c1ccc(cc1)CCCCCO2 [Compound 73] | – | – | 590 | 464 | 287 | 373 | – | –
8 | COc1cc2ncc1[C@H](CC(=O)O)c1ccc3c(c1)CN(CC3)C(=O)c1ccc(cc1)CCCCCO2 [Compound 79] | – | – | 2040 | 1720 | 733 | 810 | – | –
9 | Cc1cc2ncc1[C@@H]([C@@H](C)C(=O)O)c1ccc3c(c1)CN(CC3)C(=O)c1ccc(cc1)CCCCCO2 [Compound 82] | – | – | 1760 | 1960 | 594 | 641 | – | –
10 | Cc1cc2ncc1[C@@H]([C@H](C)C(=O)O)c1ccc3c(c1)CN(CC3)C(=O)c1ccc(cc1)CCCCCO2 [Compound 84] | – | – | 30 | 26.3 | 7.4 | 6.2 | – | –
11 | COc1cc2ccc1C(=O)N1CCc3ccc(cc3C1)[C@H](CC(=O)O)c1ccc3c(nnn3CCCCCC2)c1C [Compound 108] | – | – | – | – | 7.2 | 7.9 | – | –
12 | COc1cc2ccc1C(=O)N1CCc3ccc(cc3C1)[C@@H](CC(=O)O)c1ccc3c(nnn3CCCCCC2)c1C [Compound 109] | – | – | 100 | 172 | 32.1 | 38 | – | –
13 | Cc1c2ccc3c1nnn3CCCCCc1ccc(cc1)C(=O)N1CCc3ccc(cc3C1)[C@@H]2[C@H](C)C(=O)O [Compound 116] | – | – | 252 | 212 | 130 | 84.8 | – | –
14 | Cc1c2ccc3c1nnn3CCCCCCc1ccc(cc1)C(=O)N1CCc3ccc(cc3C1)[C@@H]2[C@@H](C)C(=O)O [Compound 132] | – | – | – | > 10000 | > 1000 | – | – | –
15 | Cc1c2ccc3c1nnn3CCCCCCOc1ccc(c(F)c1)C(=O)N1CCc3ccc(cc3C1)[C@H]2[C@@H](C)C(=O)O [Compound 152] | – | – | – | – | – | – | > 10000 | > 10000
16 | Cc1c2ccc3c1nnn3CCCCCCOc1ccc(c(F)c1)C(=O)N1CCc3ccc(cc3C1)[C@H]2[C@H](C)C(=O)O [Compound 156] | 171 nM | 44.3 nM | – | – | – | – | 201 | 55.9
17 | Cc1c2ccc3c1nnn3CCCCCc1ccc(cc1)C(=O)N1CCc3ccc(cc3C1)[C@@H]2[C@H](C)C(=O)O [Compound 160] | 13.2 nM | 7 nM | – | – | – | – | 12.4 | 9.4
18 | Cc1c2ccc3c1nnn3CCCCCCc1ccc(cc1)C(=O)N1CCc3ccc(cc3C1)[C@@H]2[C@@H](C)C(=O)O [Compound 176] | 0.2 nM | 0.8 nM | – | – | – | – | 0.1 | 0.5
19 | Cc1c2ccc3c1nnn3CCCCCCOc1ccc(c(F)c1)C(=O)N1CCc3ccc(cc3C1)[C@@H]2[C@H](C)C(=O)O [Compound 177] | 140 nM | 36.1 nM | – | – | – | – | 107 | 43.7
20 | Cc1c2ccc3c1nnn3CCCCCCOc1ccc(c(F)c1)C(=O)N1CCc3ccc(cc3C1)[C@@H]2[C@@H](C)C(=O)O [Compound 181] | 6.6 nM | 3.4 nM | – | – | – | – | 5.3 | 3.6
21 | COc1cc2ccc1C(=O)N1CCc3ccc(cc3C1)C(CC(=O)O)c1ccc3c(nnn3CCCCCC2)c1C (stereo not shown) [Compound 188] | 14.9 nM | 9.1 nM | – | – | – | – | 15.3 | 9.4
22 | Cc1cc2ccc1C(=O)N1CCc3ccc(cc3C1)[C@H](CC(=O)O)c1ccc3c(nnn3CCCCCC2)c1C [Compound 245] | 37.6 nM | 18.5 nM | – | – | – | – | 24.8 | 19.4
23 | Cc1c2ccc3c1nnn3CCCCCCOc1ccc(c(F)c1)C(=O)N1CCc3ccc(cc3C1)[C@H]2CC(=O)O [Compound 255] | 289 nM | 4 nM | – | – | – | – | 288 | 4.8
24 | Cc1c2ccc3c1nnn3CCCCCCOc1ccc(c(F)c1)C(=O)N1CCc3ccc(cc3C1)[C@@H]2CC(=O)O [Compound 257] | 146 nM | 4.3 nM | – | – | – | – | 228 | 7.4
25 | CC(C)(C(=O)O)C1c2ccc3c(c2)CN(CC3)C(=O)c2ccc(cc2)OCCCCCCn2nnc3cc1ccc32 (stereo not shown) [Compound 287] | – | – | – | – | – | – | 112 | 3.1
26 | Cc1cc2ccc1C(=O)N1CCc3ccc(cc3C1)C(CC(=O)O)c1ccc3c(nnn3CCCCCC2)c1C (stereo not shown) [Compound 295] | – | – | – | – | – | – | 0.7 | 0.2
27 | Cc1c2ccc3c1nnn3CCCCCCOc1ccc(c(F)c1)C(=O)N1CCc3ccc(cc3C1)C2CC(=O)O (stereo not shown) [Compound 317] | – | – | – | – | – | – | 11.9 | 0.6
28 | O=C(O)CC1c2ccc3c(c2)CN(CC3)C(=O)c2ccc(cc2)OCCCCCCn2nnc3cc1ccc32 (stereo not shown) [Compound 329] | – | – | – | – | – | – | 1230 | 403
29 | Cc1cc2ccc1C(=O)N1CCc3ccc(cc3C1)C(CC(=O)O)c1ccc3c(c1)nnn3CCCCCO2 (stereo not shown) [Compound 330] | – | – | – | – | – | – | 862 | 1070
